For one assay, the system named is NCI-H1975. Kind of assay: Antiproliferative activity against gefitinib-resistant human NCI-H1975 cells after 72 hrs by MTS assay. It is filed as functional, cell-based. (Tetrazolium dyes change colour on reduction, which living cells bring about.)
For assay [1], the target named is Heat shock protein HSP 90-alpha (Homo sapiens, UniProt P07900). Kind of assay: Inhibition of recombinant human Hsp90alpha ATP-binding pocket of N-terminal domain after 4 hrs by fluorescence polarization assay. A general note: Polarisation of emitted light reports the rotation of a fluorescent probe.
Assay [2] concerns the target Heat shock protein HSP 90-beta (Homo sapiens) (UniProt P08238). Kind of assay: Inhibition of HSP90 in human H1975 cells assessed as upregulation of Hsp70 at 100 uM after 24 hrs by Western blotting analysis. It is filed as cell-based. (In general: A western blot detects proteins with antibodies after separation by electrophoresis.)
Assay [3] has the same target. Kind of assay: Inhibition of HSP90 in human H1975 cells assessed as reduction of Met level after 24 hrs by densitometric analysis. It is filed as cell-based.
The target is the same in assay [4]. Kind of assay: Inhibition of HSP90 in human H1975 cells assessed as upregulation of Hsp70 after 24 hrs by densitometric analysis. It is filed as cell-based.
Assay [5] has the same target. Kind of assay: Inhibition of HSP90 in human H1975 cells assessed as reduction of Her2 level at 50 to 100 uM after 24 hrs by densitometric analysis. It is filed as cell-based.
For assay [6] the target is unchanged. Kind of assay: Inhibition of HSP90 in human H1975 cells assessed as reduction of Akt level after 24 hrs by densitometric analysis. It is filed as cell-based.
Assay [7] shares this target. Kind of assay: Inhibition of HSP90 in human H1975 cells assessed as reduction of Her2 level after 24 hrs by densitometric analysis. It is filed as cell-based.
The target is the same in assay [8]. Kind of assay: Inhibition of HSP90 in human H1975 cells assessed as reduction of Akt level at 100 uM after 24 hrs by Western blotting analysis. It is filed as cell-based.
Assay [9] has the same target. Kind of assay: Inhibition of HSP90 in human H1975 cells assessed as reduction of Met level at 100 uM after 24 hrs by Western blotting analysis. It is filed as cell-based.
Assay [10] shares this target. Kind of assay: Inhibition of HSP90 in human H1975 cells assessed as reduction of Her2 level at 100 uM after 24 hrs by Western blotting analysis. It is filed as cell-based.

Each structure is given as a SMILES string. pIC50, pKi: −log10 of the molar value. The source made the active and inactive calls. The rule behind the calls is not given here.

From ChEMBL document CHEMBL3085689, “Targeting the hydrophobic region of Hsp90's ATP binding pocket with novel 1,3,5-triazines” (Bioorg Med Chem Lett, 2013) come the findings set out here.

Sequence of Heat shock protein HSP 90-beta (Homo sapiens) (P08238 whole entry): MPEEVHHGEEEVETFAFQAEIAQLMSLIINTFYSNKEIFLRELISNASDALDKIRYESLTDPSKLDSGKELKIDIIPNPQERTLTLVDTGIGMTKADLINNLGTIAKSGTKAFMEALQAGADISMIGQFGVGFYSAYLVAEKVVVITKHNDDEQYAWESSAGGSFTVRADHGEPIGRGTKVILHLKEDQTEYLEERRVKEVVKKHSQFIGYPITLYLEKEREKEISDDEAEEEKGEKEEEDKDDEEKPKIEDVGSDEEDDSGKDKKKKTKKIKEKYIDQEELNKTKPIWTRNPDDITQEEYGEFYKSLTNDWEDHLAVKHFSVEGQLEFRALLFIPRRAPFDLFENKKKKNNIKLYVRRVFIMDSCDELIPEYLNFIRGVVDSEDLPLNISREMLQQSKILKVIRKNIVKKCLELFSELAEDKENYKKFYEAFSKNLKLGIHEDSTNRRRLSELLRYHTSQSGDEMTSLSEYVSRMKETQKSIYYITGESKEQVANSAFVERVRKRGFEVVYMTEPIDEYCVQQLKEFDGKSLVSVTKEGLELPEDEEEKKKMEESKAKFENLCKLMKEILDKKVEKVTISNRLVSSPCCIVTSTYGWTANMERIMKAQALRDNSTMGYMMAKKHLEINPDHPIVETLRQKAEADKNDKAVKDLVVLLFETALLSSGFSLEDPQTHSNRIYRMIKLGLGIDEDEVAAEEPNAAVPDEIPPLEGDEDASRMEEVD

For the compound `Nc1nc(Cl)nc(Nc2ccccc2Cl)n1`, the Activity result in the assay with NCI-H1975 is “Dose-dependent effect”.

With `COc1cc(COc2nc(N)nc(Cl)n2)cc(OC)c1OC`, in the assay with NCI-H1975, the Activity entry was “Dose-dependent effect”.

As to `Cc1cccc(C)c1Oc1nc(N)nc(Cl)n1`, the Activity entry (in the assay with NCI-H1975; in assay [3]; in assay [4]; in assay [6]; in assay [7]) was “Dose-dependent effect” each time. Moreover, in assay [1], the pIC50 is 5.30. Further, in assay [1], the pKi was 5.55. The result in assay [2], in [5], in assay [8], in assay [9] and in assay [10] was Active.

With `COc1ccc(Oc2nc(N)nc(Cl)n2)cc1`, in the assay on NCI-H1975, the Activity result was “Dose-dependent effect”. Moreover, the result in [2], in [8], in [9] and in assay [10] was Active.

Consider `Nc1nc(Cl)nc(Nc2ccc(O)cc2)n1`, for which the Activity entry in the assay on NCI-H1975 is “Dose-dependent effect”.

For `Nc1nc(Cl)nc(Nc2ccccc2)n1`, the Activity entry with NCI-H1975 is “Dose-dependent effect”.

On to `COc1ccc(COc2nc(N)nc(Cl)n2)cc1`, for which the Activity result in the assay on NCI-H1975 is “Dose-dependent effect”. Moreover, the result in assay [2], in assay [9] and in assay [10] was inactive.

The term pIC50 denotes −log10 of the IC50, conventionally taken in molar units. Usually pKi stands for the Ki on a negative log10 scale, so that one unit is a factor of ten.
